Measurements: USRE39149E1, “Method of administering azithromycin” (Pfizer Inc., priority 1994, dated 2006)

Assay: Stability of azithromycin at acid pH / in stomach juices
Type: physicochemical
Text: Thus, without being bound to any mechanism of action, it is surprising that rapid disintegration in the GI tract appears to be of importance to the invention.

stability at low (acid) pH (on the order of the pH of stomach acid): unstable
stability on exposure to stomach juices (stomach juices, acid pH): breaks down
SMILES: CC[C@H]1OC(=O)[C@H](C)[C@@H](O[C@H]2C[C@@](C)(OC)[C@@H](O)[C@H](C)O2)[C@H](C)[C@@H](O[C@@H]2O[C@H](C)C[C@H](N(C)C)[C@H]2O)[C@](C)(O)C[C@@H](C)CN(C)[C@H](C)[C@@H](O)[C@]1(C)O [azithromycin, 9a-aza-9a-methyl-9-deoxo-9a-homoerythromycin A]
